Values of other authors as cited in US20040076646A1, “Haptenizing cancer cell components” (priority 2001, published 2004).

Test system: individuals / adult Americans

For urushiol, the “amount of urushiol sufficient to induce the rash response” value (some individuals, molecular traces) is given as no more than 2 µg and the “proportion of adult Americans who respond” value (≦50 μg of purified material) is given as 80-90%.
